Reference: patent US20090270350A1, “Pyridinone Pyrazole Urea and Pyrimidinone Pyrazole Urea Derivatives” (PFIZER INC., priority 2006, published 2009)
Like-named read-outs stand apart in the source and are kept apart here.

Molecular target: p38α (Homo sapiens, UniProt Q16539)
Assay: p38α/MK2 cascade assay
Format: biochemical
Conditions: read-out: p38a/MK2 Cascade 40 min Pre-Incuabtion (% Inhibition): IC50
Procedure, shortened: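 In a cascade format, p38α was preincubated 40 min with inhibitor (1000–0.05 nM) before adding 1 nM nonactive MK2 (54-400), 5 μM MgATP and 0.5 μM FITC-Hsp27 peptide. Reaction ran 60 min in HEPES pH 7.5 with MgCl2, DTT, 2% DMSO, then EDTA-quenched. Peptide phosphorylation was measured by Caliper mobility shift to give IC50.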

[1] = Table 1, inhibitors preincubated with p38α for 40 minutes, phosphorylation of Hsp27 peptide by MK-2, Caliper LabChip 3000
[2] = Table 2, same p38α/MK2 cascade assay, 40 minutes preincubation

Sequence of p38α (Q16539 whole entry): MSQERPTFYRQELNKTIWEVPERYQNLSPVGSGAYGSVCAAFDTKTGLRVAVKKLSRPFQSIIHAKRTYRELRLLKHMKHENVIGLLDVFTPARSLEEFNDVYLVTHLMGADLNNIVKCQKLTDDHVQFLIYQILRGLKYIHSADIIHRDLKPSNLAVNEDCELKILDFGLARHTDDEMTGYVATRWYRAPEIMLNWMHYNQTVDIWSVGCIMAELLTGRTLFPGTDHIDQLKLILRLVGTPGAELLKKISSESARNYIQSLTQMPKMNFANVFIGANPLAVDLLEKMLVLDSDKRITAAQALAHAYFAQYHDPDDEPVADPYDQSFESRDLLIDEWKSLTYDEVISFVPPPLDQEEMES

Compound	IC50 [1]	IC50 [2]
COC(=O)c1ccc(C)c(-n2c(C)cc(OCc3ccc(F)cc3CNC(=O)Nc3cc(C(C)(C)C)nn3-c3ccc(C)cc3)c(Br)c2=O)c1 [Example 185, methyl 3-{3-bromo-4-[(2-{[({[3-tert-butyl-1-(4-methylphenyl)-1H-pyrazol-5-yl]amino}carbonyl)amino]methyl}-4-fluorobenzyl)oxy]-6-methyl-2-oxopyridin-1(2H)-yl}-4-methylbenzoate]	3.61 nM	–
Cc1ccc(-n2nc(C(C)(C)C)cc2NC(=O)NCc2cc(F)ccc2COc2cc(C)n(-c3cc(C(=O)O)ccc3C)c(=O)c2Br)cc1 [Example 207, 3-{3-bromo-4-[(2-{[({[3-tert-butyl-1-(4-methylphenyl)-1H-pyrazol-5-yl]amino}carbonyl)-amino]methyl}-4-fluorobenzyl)oxy]-6-methyl-2-oxopyridin-1(2H)-yl}-4-methylbenzoic acid]	–	4.54 nM
Cc1ccc(C(=O)NCCO)cc1-n1c(C)cc(OCc2ccc(F)cc2CNC(=O)Nc2cc(C(C)(C)C)nn2-c2cccc(OCCO)c2)c(Cl)c1=O [Example 239, 3-[4-{[2-({[({3-tert-butyl-1-[3-(2-hydroxyethoxy)phenyl]-1H-pyrazol-5-yl}amino)carbonyl]amino}methyl)-4-fluorobenzyl]-oxy}-3-chloro-6-methyl-2-oxopyridin-1(2H)-yl]-N-(2-hydroxy-ethyl)-4-methylbenzamide]	–	2.9 nM
COC(=O)c1ccc(C)c(-n2c(C)cc(OCc3ccccc3CNC(=O)Nc3cc(C(C)(C)C)nn3-c3ccc(Cl)c(O)c3)c(Cl)c2=O)c1 [Example 221, methyl 3-{4-[(2-{[({[3-tert-butyl-1-(4-chloro-3-hydroxy-phenyl)-1H-pyrazol-5-yl]amino}carbonyl)amino]-methyl}-benzyl)oxy]-3-chloro-6-methyl-2-oxopyridin-1(2H)-yl}-4-methylbenzoate]	–	10.5 nM
Cc1ccc(C(=O)NCC(N)=O)cc1-n1c(C)cc(OCc2ccccc2CNC(=O)Nc2cc(C(C)(C)C)nn2-c2ccc(O)cc2)c(Cl)c1=O [Example 219, N-(2-amino-2-oxoethyl)-3-{4-[(2-{[({[3-tert-butyl-1-(4-hydroxyphenyl)-1H-pyrazol-5-yl]amino}carbonyl)amino]-methyl}benzyl)oxy]-3-chloro-6-methyl-2-oxopyridin-1(2H)-yl}-4-methylbenzamide]	–	0.9 nM
COc1ccc(Cn2c(C)cc(OCc3ccc(F)cc3CNC(=O)Nc3cc(C(C)(C)C)nn3-c3ccc(O)c(Cl)c3)c(Cl)c2=O)cc1 [Example 62, 1-[3-tert-butyl-1-(3-chloro-4-hydroxyphenyl)-1H-pyrazol-5-yl]-3-[2-({[3-chloro-1-(4-methoxybenzyl)-6-methyl-2-oxo-1,2-dihydropyridin-4-yl]oxy}methyl)-5-fluorobenzyl]urea]	4.5 nM	–
Cc1ccc(-n2nc(C(C)(C)C)cc2NC(=O)NCc2cc(F)ccc2COc2cc(C)n(-c3cc(C(=O)O)ccc3C)c(=O)c2Cl)cc1 [Example 186, 3-{4-[(2-{[({[3-tert-butyl-1-(4-methylphenyl)-1H-pyrazol-5-yl]amino}carbonyl)amino]methyl}-4-fluorobenzyl)oxy]-3-chloro-6-methyl-2-oxopyridin-1(2H)-yl}-4-methylbenzoic acid]	4.62 nM	–
COCCNC(=O)c1ccc(C)c(-n2c(C)cc(OCc3ccccc3CNC(=O)Nc3cc(C(C)(C)C)nn3-c3ccc(O)c(Cl)c3)c(Cl)c2=O)c1 [Example 225, 3-{4-[(2-{[({[3-tert-butyl-1-(3-chloro-4-hydroxyphenyl)-1H-pyrazol-5-yl]amino}carbonyl)amino]methyl}benzyl)oxy]-3-chloro-6-methyl-2-oxopyridin-1(2H)-yl}-N-(2-methoxyethyl)-4-methylbenzamide]	–	3.03 nM
COc1cccc(Cn2c(C)cc(OCc3ccc(F)cc3CNC(=O)Nc3cc(C(C)(C)C)nn3-c3cccc(OCCOC4CCCCO4)c3)cc2=O)c1 (centres unmarked) [Example 34, 1-(3-tert-butyl-1-{3-[2-(tetrahydro-2H-pyran-2-yloxy)ethoxy]phenyl}-1H-pyrazol-5-yl)-3-[5-fluoro-2-({[1-(3-methoxybenzyl)-6-methyl-2-oxo-1,2-dihydropyridin-4-yl]oxy}methyl)benzyl]urea]	266 nM	–
COc1ccccc1Cn1c(C)cc(OCc2ccccc2CNC(=O)Nc2cc(C(C)(C)C)nn2-c2ccc(O)c(Cl)c2)c(Cl)c1=O [Example 248, 1-[3-tert-butyl-1-(3-chloro-4-hydroxyphenyl)-1H-pyrazol-5-yl]-3-[2-({[3-chloro-1-(2-methoxybenzyl)-6-methyl-2-oxo-1,2-dihydropyridin-4-yl]oxy}methyl)benzyl]urea]	–	15.1 nM
Cc1cc(OCc2ccccc2CNC(=O)Nc2cc(C(C)(C)C)nn2-c2ccccc2)c(Br)c(=O)n1Cc1ccccc1 [Example 104, 1-(2-{[(1-benzyl-3-bromo-6-methyl-2-oxo-1,2-dihydropyridin-4-yl)oxy]methyl}benzyl)-3-(3-tert-butyl-1-phenyl-1H-pyrazol-5-yl)urea]	4.52 nM	–

The next lines start with the values.

IC50 [1]	IC50 [2]	Compound
–	8.4 nM	COc1ccc(Cn2c(C)cc(OCc3ccccc3CNC(=O)Nc3cc(C(C)(C)C)nn3-c3cccc(OCCO)c3)c(C)c2=O)cc1C#N [Example 250, 1-{3-tert-butyl-1-[3-(2-hydroxyethoxy)phenyl]-1H-pyrazol-5-yl}-3-[2-({[1-(3-cyano-4-methoxybenzyl)-3,6-dimethyl-2-oxo-1,2-dihydropyridin-4-yl]oxy}methyl)benzyl]urea]
3.7 nM	–	COc1ccc(Cn2c(C)cc(OCc3ccc(F)cc3CNC(=O)Nc3cc(C(C)(C)C)nn3-c3cccc(OCCO)c3)c(Cl)c2=O)cc1 [Example 60, 1-{3-tert-butyl-1-[3-(2-hydroxyethoxy)phenyl]-1H-pyrazol-5-yl}-3-[2-({[3-chloro-1-(4-methoxybenzyl)-6-methyl-2-oxo-1,2-dihydropyridin-4-yl]oxy}methyl)-5-fluorobenzyl]urea]
–	27.4 nM	COc1ccccc1Cn1c(C)cc(OCc2ccccc2CNC(=O)Nc2cc(C(C)(C)C)nn2-c2ccc(O)c(Cl)c2)c(C)c1=O [Example 264, 1-[3-tert-butyl-1-(3-chloro-4-hydroxyphenyl)-1H-pyrazol-5-yl]-3-[2-({[1-(2-methoxybenzyl)-3,6-dimethyl-2-oxo-1,2-dihydro-pyridin-4-yl]oxy}methyl)benzyl]urea]
29.3 nM	–	COc1cccc(Cn2c(C)cc(OCc3ccc(F)cc3CNC(=O)Nc3cc(C(C)(C)C)nn3-c3cccc(OCCO)c3)cc2=O)c1 [Example 37, 1-{3-tert-butyl-1-[3-(2-hydroxyethoxy)phenyl]-1H-pyrazol-5-yl}-3-[5-fluoro-2-({[1-(3-methoxybenzyl)-6-methyl-2-oxo-1,2-dihydropyridin-4-yl]oxy}methyl)benzyl]urea]
6.38 nM	–	COc1cccc(-n2nc(C(C)(C)C)cc2NC(=O)NCc2ccccc2COc2cc(C)n(Cc3ccccc3)c(=O)c2Br)c1 [Example 109, 1-(2-{[(1-benzyl-3-bromo-6-methyl-2-oxo-1,2-dihydropyridin-4-yl)oxy]methyl}benzyl)-3-[3-tert-butyl-1-(3-methoxyphenyl)-1H-pyrazol-5-yl]urea]
7.5 nM	–	COc1ccc(Cn2c(C)cc(OCc3ccccc3CNC(=O)Nc3cc(C(C)(C)C)nn3-c3ccc(O)cc3)c(Cl)c2=O)cc1Cl [Example 64, 1-[3-tert-butyl-1-(4-hydroxyphenyl)-1H-pyrazol-5-yl]-3-[2-({[3-chloro-1-(3-chloro-4-methoxybenzyl)-6-methyl-2-oxo-1,2-dihydropyridin-4-yl]oxy}methyl)benzyl]urea]
–	23.1 nM	COc1ccccc1Cn1c(C)cc(OCc2ccccc2CNC(=O)Nc2cc(C(C)(C)C)nn2-c2ccc(O)cc2)c(C)c1=O [Example 263, 1-[3-tert-butyl-1-(4-hydroxyphenyl)-1H-pyrazol-5-yl]-3-[2-({[1-(2-methoxybenzyl)-3,6-dimethyl-2-oxo-1,2-dihydropyridin-4-yl]oxy}methyl)benzyl]urea]
–	20.4 nM	CSc1ccccc1Cn1c(C)cc(OCc2ccccc2CNC(=O)Nc2cc(C(C)(C)C)nn2-c2cccc(OCCO)c2)c(Cl)c1=O [Example 269, 1-{3-tert-butyl-1-[3-(2-hydroxyethoxy)phenyl]-1H-pyrazol-5-yl}-3-{2-[({3-chloro-6-methyl-1-[2-(methylthio)benzyl]-2-oxo-1,2-dihydropyridin-4-yl}oxy)methyl]benzyl}urea]
–	10.1 nM	COc1cc(Cn2c(C)cc(OCc3ccccc3CNC(=O)Nc3cc(C(C)(C)C)nn3-c3ccc(O)cc3)c(Cl)c2=O)ccc1Cl [Example 258, 1-[3-tert-butyl-1-(4-hydroxyphenyl)-1H-pyrazol-5-yl]-3-[2-({[3-chloro-1-(4-chloro-3-methoxybenzyl)-6-methyl-2-oxo-1,2-dihydropyridin-4-yl]oxy}methyl)benzyl]urea]
4.6 nM	–	COc1ccc(Cn2c(C)cc(OCc3ccccc3CNC(=O)Nc3cc(C(C)(C)C)nn3-c3ccc(O)c(Cl)c3)c(Cl)c2=O)cc1 [Example 58, 1-[3-tert-butyl-1-(3-chloro-4-hydroxyphenyl)-1H-pyrazol-5-yl]-3-[2-({[3-chloro-1-(4-methoxybenzyl)-6-methyl-2-oxo-1,2-dihydropyridin-4-yl]oxy}methyl)benzyl]urea]
–	11.2 nM	COc1ccc(Cn2c(C)cc(OCc3ccccc3CNC(=O)Nc3cc(C(C)(C)C)nn3-c3ccccc3)c(C)c2=O)cc1 [Example 237, 1-(3-tert-butyl-1-phenyl-1H-pyrazol-5-yl)-3-[2-({[1-(4-methoxybenzyl)-3,6-dimethyl-2-oxo-1,2-dihydropyridin-4-yl]oxy}methyl)benzyl]urea]
7.9 nM	–	COc1ccc(Cn2c(C)cc(OCc3ccccc3CNC(=O)Nc3cc(C(C)(C)C)nn3-c3ccc(Cl)c(O)c3)c(Cl)c2=O)cc1Cl [Example 67, 1-[3-tert-butyl-1-(4-chloro-3-hydroxyphenyl)-1H-pyrazol-5-yl]-3-[2-({[3-chloro-1-(3-chloro-4-methoxybenzyl)-6-methyl-2-oxo-1,2-dihydropyridin-4-yl]oxy}methyl)benzyl]urea]
